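1) Cells in 96-well plates. 2) Compound, 48 h, 5 concentrations. 3) Linear interpolation between surrounding doses. 4) Unreached endpoint = highest concentration. GI50 marks 50% less growth.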 Calls of active or inactive are those of the source. No stated cut-off is given here; in the data, active = GI50 up to about 1.1 µM and inactive = higher.
Columns and labels:
Test in all cases: NCI anticancer screen, dose series, 48 h
ACHN = tested on: ACHN
SF-295 = tested on: SF-295
RPMI-8226 = tested on: RPMI-8226
HCT-116 = tested on: HCT-116
OVCAR-4 = tested on: OVCAR-4
NCI-H226 = tested on: NCI-H226
K562 = tested on: K562
SK-MEL-2 = tested on: SK-MEL-2
UO-31 = tested on: UO-31
SNB-75 = tested on: SNB-75
SK-MEL-5 = tested on: SK-MEL-5
MOLT-4 = tested on: MOLT-4
RXF 393 = tested on: RXF 393
SNB-19 = tested on: SNB-19
CCRF-CEM = tested on: CCRF-CEM
HL-60 = tested on: HL-60
UACC-257 = tested on: UACC-257
SF-539 = tested on: SF-539
SK-MEL-28 = tested on: SK-MEL-28
HOP-92 = tested on: HOP-92

Measured: GI50

C/C(=N\NC(=O)c1ccncc1)c1sc(-n2nc(-c3ccccc3)cc2-c2ccccc2)nc1C
inactive: ACHN > 31.6 µM | SF-295 > 31.6 µM | RPMI-8226 20.7 µM | HCT-116 > 31.6 µM | OVCAR-4 > 31.6 µM | NCI-H226 > 64.1 µM | K562 59.6 µM | SK-MEL-2 > 31.6 µM | UO-31 > 31.6 µM | SNB-75 > 37.2 µM | SK-MEL-5 > 31.6 µM | MOLT-4 17.1 µM | RXF 393 > 31.6 µM | SNB-19 > 31.6 µM | CCRF-CEM > 31.6 µM | HL-60 21.5 µM | UACC-257 > 31.6 µM | SF-539 > 31.6 µM | SK-MEL-28 > 31.6 µM | HOP-92 > 31.6 µM

Cc1ccc(/C=C2\Cc3c(C)cc(C)cc3C2=O)c(C(=O)O)c1
inactive: ACHN 59.6 µM | SF-295 41.9 µM | RPMI-8226 19.3 µM | HCT-116 49.4 µM | OVCAR-4 34.7 µM | NCI-H226 23.8 µM | K562 54.7 µM | SK-MEL-2 24.4 µM | UO-31 50.7 µM | SNB-75 58.9 µM | SK-MEL-5 25.8 µM | MOLT-4 35.5 µM | RXF 393 39.9 µM | SNB-19 44.5 µM | CCRF-CEM 35.1 µM | HL-60 23.1 µM | UACC-257 61.8 µM | SF-539 15.9 µM | SK-MEL-28 56.2 µM | HOP-92 36.1 µM

CC1(O)C=CC(=O)C=C1
inactive: ACHN 27.5 µM | SF-295 57.1 µM | RPMI-8226 30.1 µM | HCT-116 60.1 µM | OVCAR-4 40.9 µM | NCI-H226 > 100 µM | K562 33.5 µM | SK-MEL-2 24.7 µM | UO-31 36.6 µM | SNB-75 > 56.1 µM | SK-MEL-5 > 55 µM | MOLT-4 19.2 µM | RXF 393 21.6 µM | SNB-19 25.7 µM | CCRF-CEM 22.2 µM | HL-60 16.4 µM | UACC-257 17.7 µM | SF-539 23.5 µM | SK-MEL-28 18.8 µM | HOP-92 > 100 µM

COc1ccc(/C=C(\C2=NC(=O)CS2)c2nc3ccccc3[nH]2)cc1
inactive: ACHN 37.6 µM | SF-295 37.2 µM | RPMI-8226 > 100 µM | HCT-116 85.1 µM | OVCAR-4 > 100 µM | NCI-H226 8.95 µM | K562 78.2 µM | SK-MEL-2 24 µM | UO-31 32.7 µM | SNB-75 28.1 µM | SK-MEL-5 37.6 µM | MOLT-4 54.8 µM | RXF 393 3.13 µM | SNB-19 > 100 µM | CCRF-CEM 39.4 µM | HL-60 > 100 µM | UACC-257 78 µM | SF-539 4.6 µM | SK-MEL-28 87.9 µM | HOP-92 80.2 µM

O=C(Nc1ccn(C2CC(O)C(COC(c3ccccc3)(c3ccccc3)c3ccccc3)O2)c(=O)n1)c1ccccc1 (stereo not given)
inactive: ACHN 3.35 µM | SF-295 1.96 µM | RPMI-8226 2.53 µM | HCT-116 2 µM | OVCAR-4 3.24 µM | NCI-H226 11 µM | K562 2.92 µM | SK-MEL-2 2.82 µM | UO-31 6.81 µM | SNB-75 4.66 µM | SK-MEL-5 2.33 µM | MOLT-4 2.16 µM | RXF 393 2.7 µM | SNB-19 3.77 µM | CCRF-CEM 2.79 µM | HL-60 2.61 µM | UACC-257 12.7 µM | SF-539 3.36 µM | SK-MEL-28 3.08 µM | HOP-92 1.57 µM

COc1cc(C2C(C(=O)Nc3ccccc3C)=C(C)NC(C)=C2C(=O)Nc2ccccc2C)ccc1O
inactive: ACHN > 100 µM | SF-295 > 100 µM | RPMI-8226 84.7 µM | HCT-116 > 100 µM | OVCAR-4 > 100 µM | NCI-H226 > 100 µM | K562 > 100 µM | SK-MEL-2 > 100 µM | UO-31 > 100 µM | SNB-75 56.6 µM | SK-MEL-5 > 100 µM | MOLT-4 60.7 µM | RXF 393 > 100 µM | SNB-19 > 100 µM | CCRF-CEM 71.8 µM | HL-60 60.4 µM | UACC-257 > 100 µM | SF-539 > 100 µM | SK-MEL-28 > 100 µM | HOP-92 > 100 µM

Reference: ChEMBL document CHEMBL1201862, “PubChem BioAssay data set” (2004)
